Laboratory results: patent publication US9358247B2, “Methods and compositions for promoting activity of anti-cancer therapies” (Oncology Research International Limited, priority 2006, dated 2016)

Columns and labels:
MCF7 cell line = assay: Cancer cell growth inhibition, SRB dye assay (single agents and 50:50 IC50 mixtures); assay type: cell-based, human
Experimental: Cancer cells were seeded the day before application of drug in triplicate or quadruplicate in 96-well plates, allowed to grow in the presence of drug for 6 days before cell growth relative to untreated control wells was determined with a dye assay. Cells were seeded in triplicate or quadruplicate at 3-4,000 per microtitre well in 90 μl of RPMI culture medium/10% foetal calf serum/penicillin, streptomycin mix, treated with 10 μl of drug (prepared in a dilution plate at 10× concentration required), and allowed to grow until the controls were nearly confluent (6 days). SRB: Plates were washed with PBS, fixed with methylated spirits, washed with tap water and stained with 50 μL/well of SRB solution (sulforhodamine, 0.4% in 1% acetic acid), followed by washing with tap water and 1% acetic acid, solubilisation in Tris and absorbance read at 564 nm in an ELISA reader. Data was collected using ELISA plate reader software—SOFTmax PRO3.1.2, then imported into EXCEL. The mean and SD of replicates were calculated as a % of control, after subtraction of the blank value (wells with no cells). A graph was plotted of % control vs dose of agent and IC50 (half maximal inhibitory concentration) values determined. […] The cells were allowed to grow until the controls were nearly confluent after 5-6 days. Plates were then washed with PBS, fixed in ethanol and stained with 50 μL/well of SRB solution (sulforhodamine, 0.4% in 1% acetic acid), followed by washing with 1% acetic acid and solubilisation in Tris. The absorbance was read at 564 nm using an ELISA reader. […] Cambridge University Press). […] The inhibitory data from each mixture was used to determine an IC50 of IC50 value, where the concentrations used were the Multiplying Factor values. In order to determine the actual IC50 contribution of each component in the two-component mixture, the IC50 of IC50 value was multiplied by the IC50 of the individual component. This can then be used to determine the reduction in IC50 contribution (ie, reduction in dose) of the chemotherapeutic agent due to the presence of the steroid saponin in the mixture. A simpler way of determining the reduction in dose is to use the following simple formula: […]

K562 cell line = assay: as above; assay type: cell-based, human; conditions: Homo sapiens, 144 h, Example 6, value used to make up 50:50 IC50 mixtures, read-out: IC50 values used in assay
Experimental: Cancer cells were seeded the day before application of drug in triplicate or quadruplicate in 96-well plates, allowed to grow in the presence of drug for 6 days before cell growth relative to untreated control wells was determined with a dye assay.
Cells were seeded in triplicate or quadruplicate at 3-4,000 per microtitre well in 90 μl of RPMI culture medium/10% foetal calf serum/penicillin, streptomycin mix, treated with 10 μl of drug (prepared in a dilution plate at 10× concentration required), and allowed to grow until the controls were nearly confluent (6 days).
SRB: Plates were washed with PBS, fixed with methylated spirits, washed with tap water and stained with 50 μL/well of SRB solution (sulforhodamine, 0.4% in 1% acetic acid), followed by washing with tap water and 1% acetic acid, solubilisation in Tris and absorbance read at 564 nm in an ELISA reader.
Data was collected using ELISA plate reader software—SOFTmax PRO3.1.2, then imported into EXCEL. The mean and SD of replicates were calculated as a % of control, after subtraction of the blank value (wells with no cells). A graph was plotted of % control vs dose of agent and IC50 (half maximal inhibitory concentration) values determined.
Tumour cells were seeded in duplicate in 96-well plates at 2-5,000 per microtitre well containing RPMI culture medium/10% foetal calf serum. The cells were allowed to grow until the controls were nearly confluent after 5-6 days. Plates were then washed with PBS, fixed in ethanol and stained with 50 μL/well of SRB solution (sulforhodamine, 0.4% in 1% acetic acid), followed by washing with 1% acetic acid and solubilisation in Tris. The absorbance was read at 564 nm using an ELISA reader.
The IC50, or concentration required to inhibit cell growth by 50%, was determined from the percentage inhibition versus concentration data using the probit calculation methods of Finney (Finney D J (1971). Probit Analysis. 3rd Edition. Cambridge University Press).
The inhibitory data from each mixture was used to determine an IC50 of IC50 value, where the concentrations used were the Multiplying Factor values. In order to determine the actual IC50 contribution of each component in the two-component mixture, the IC50 of IC50 value was multiplied by the IC50 of the individual component. This can then be used to determine the reduction in IC50 contribution (ie, reduction in dose) of the chemotherapeutic agent due to the presence of the steroid saponin in the mixture. A simpler way of determining the reduction in dose is to use the following simple formula: […]
The cell seeding and ELISA plate methodology of Example 2 were used for determining inhibition of the K562 cell line.

HT29 human cells = assay: In vivo tumour volume, HT29 cells subcutaneously introduced into mice, 5-fluorouracil and deltonin; set-up: species or system Balb/c nude female mice
Excerpt: 5-Fluorouracil (5FU) is the principal chemotherapeutic drug used in treating colon cancer; it is most commonly co-administered with other chemotherapeutic agents. This study compared the co-administration of 5-fluoruracil and deltonin, with administration of mono-administration of both 5-fluorourcil and deltonin.
72 female Balb/c nude female mice were microchipped, weighed and randomised based on body weight into 8 groups with 9 mice per group. […]
HT29 human […] carcinoma cells were cultured in RPMI1640 cell culture medium, which was supplemented with 10% FBS and penicillin-streptomycin (50 IU/mL final concentration). The cells were harvested by trypsinisation, washed twice in HBSS and counted. The cells were then resuspended in HBSS and adjusted to a final volume containing 2×10^7 cells/mL. For inoculation, the needle was introduced through the skin into the subcutaneous space just below the right shoulder, where 100 μL of cells (2×10^6) were discharged.
When the tumour volumes had reached an average of greater than 200 mm^3, treatment was started (Day 0). Tumour volumes were measured 3-times weekly, and determined according to the formula: V(mm^3)=length×diameter^2×π/6
Treatment was continued for 17 days. The mean tumour volumes for each dosage regime are given in Table 24 and are presented graphically in FIG. 1: […]

Question: For `C[C@@H]1CC[C@@]2(OC1)O[C@H]1C[C@H]3[C@@H]4CC=C5C[C@@H](O[C@@H]6O[C@H](CO)[C@@H](O[C@@H]7O[C@H](CO)[C@@H](O)[C@H](O)[C@H]7O)[C@H](O)[C@H]6O[C@@H]6O[C@@H](C)[C@H](O)[C@@H](O)[C@H]6O)CC[C@]5(C)[C@H]4CC[C@]3(C)[C@H]1[C@@H]2C` [Deltonin, diosgenin Rha2, [Glc4], Glc], which “Vincristine Dose Reduction” value (MCF7 cell line; 50:50 IC50 mixture vs vincristine alone, Example 3) is on record?
Answer: consistent reduction in dosage

Question: What about the IC50 (MCF7 cell line; Homo sapiens, 144 h, Example 3, value used to make up 50:50 IC50 mixtures, read-out: IC50 values used in assay) of the same compound?
Answer: 1000 nM

Question: What about the IC50 (K562 cell line) of the same compound?
Answer: 1000 nM

Question: What about the Mean tumour volume (HT29 human cells; Deltonin 1.65 mg/kg daily, Day 0) of the same compound?
Answer: 236 mm^3

Question: What about the Mean tumour volume (HT29 human cells; Deltonin 1.65 mg/kg daily, Day 2) of the same compound?
Answer: 260 mm^3

Question: And the Mean tumour volume (HT29 human cells; Deltonin 1.65 mg/kg daily, Day 4)?
Answer: 299 mm^3

Question: And the Mean tumour volume (HT29 human cells; Deltonin 1.65 mg/kg daily, Day 7)?
Answer: 294 mm^3

Question: And the Mean tumour volume (HT29 human cells; Deltonin 1.65 mg/kg daily, Day 9)?
Answer: 350 mm^3

Question: What about the Mean tumour volume (HT29 human cells; Deltonin 1.65 mg/kg daily, Day 11) of the same compound?
Answer: 462 mm^3

Question: And the Mean tumour volume (HT29 human cells; Deltonin 1.65 mg/kg daily, Day 14)?
Answer: 594 mm^3

Question: What about the Mean tumour volume (HT29 human cells; Deltonin 1.65 mg/kg daily, Day 16) of the same compound?
Answer: 644 mm^3

Question: And the Mean tumour volume (HT29 human cells; Deltonin 1.65 mg/kg daily, Day 18)?
Answer: 776 mm^3

Question: What about the Mean tumour volume (HT29 human cells; Deltonin 3.3 mg/kg daily, Day 0) of the same compound?
Answer: 236 mm^3

Question: And the Mean tumour volume (HT29 human cells; Deltonin 3.3 mg/kg daily, Day 2)?
Answer: 242 mm^3

Question: And the Mean tumour volume (HT29 human cells; Deltonin 3.3 mg/kg daily, Day 4)?
Answer: 271 mm^3

Question: And the Mean tumour volume (HT29 human cells; Deltonin 3.3 mg/kg daily, Day 7)?
Answer: 331 mm^3

Question: What about the Mean tumour volume (HT29 human cells; Deltonin 3.3 mg/kg daily, Day 9) of the same compound?
Answer: 413 mm^3

Question: What about the Mean tumour volume (HT29 human cells; Deltonin 3.3 mg/kg daily, Day 11) of the same compound?
Answer: 489 mm^3

Question: And the Mean tumour volume (HT29 human cells; Deltonin 3.3 mg/kg daily, Day 14)?
Answer: 558 mm^3

Question: And the Mean tumour volume (HT29 human cells; Deltonin 3.3 mg/kg daily, Day 16)?
Answer: 742 mm^3

Question: What about the Mean tumour volume (HT29 human cells; Deltonin 3.3 mg/kg daily, Day 18) of the same compound?
Answer: 842 mm^3

Question: And the Mean tumour volume (HT29 human cells; Deltonin 6.6 mg/kg daily, Day 0)?
Answer: 235 mm^3

Question: And the Mean tumour volume (HT29 human cells; Deltonin 6.6 mg/kg daily, Day 2)?
Answer: 233 mm^3

Question: What about the Mean tumour volume (HT29 human cells; Deltonin 6.6 mg/kg daily, Day 4) of the same compound?
Answer: 265 mm^3

Question: And the Mean tumour volume (HT29 human cells; Deltonin 6.6 mg/kg daily, Day 7)?
Answer: 310 mm^3

Question: What about the Mean tumour volume (HT29 human cells; Deltonin 6.6 mg/kg daily, Day 9) of the same compound?
Answer: 399 mm^3

Question: What about the Mean tumour volume (HT29 human cells; Deltonin 6.6 mg/kg daily, Day 11) of the same compound?
Answer: 490 mm^3

Question: And the Mean tumour volume (HT29 human cells; Deltonin 6.6 mg/kg daily, Day 14)?
Answer: 588 mm^3

Question: What about the Mean tumour volume (HT29 human cells; Deltonin 6.6 mg/kg daily, Day 16) of the same compound?
Answer: 671 mm^3

Question: And the Mean tumour volume (HT29 human cells; Deltonin 6.6 mg/kg daily, Day 18)?
Answer: 692 mm^3
